Data taken from US12460050B2, “Nitric oxide-releasing hyperbranched compounds as antibacterial scaffolds and methods pertaining thereto” (The University of North Carolina at Chapel Hill, priority 2017, dated 2025).

System: Human gingival fibroblasts (HGF-1)
Assay: In vitro cytotoxicity (MTS) of PAMAM scaffolds
Type: cell-based
Description: The toxicity of the PAMAM scaffolds to human gingival fibroblasts (HGF-1) was evaluated after 2 and 24 h exposure times. Human gingival fibroblasts (HGF-1) were grown in FibroLife fibroblast serum-free media, and incubated in 5 vol % CO2 under humidified conditions at 37° C. The cells were trypsinized at 80% confluency and seeded into tissue culture-treated polystyrene 96-well plates at a density of 10^4 cells/well. The plates were incubated for an additional 24 h at 37° C. The supernatant was aspirated and replaced with 100 μL of fresh growth medium containing various concentrations of PAMAM scaffolds. After two incubation time points (i.e., 2 and 24 h) at 37° C., the supernatant was aspirated, and the cells were washed with DPBS. A 100 μL solution of media/MTS/PMS (105/20/1, v/v/v) solution was added to each well, and incubated for 3 h at 37° C. The absorbance of the colored supernatant was quantified at 490 nm using a Thermoscientific Multiskan EX plate reader (Waltham, MA). Measurements for untreated cells (control) and media/MTS/PMS mixture (blank) were also collected. Results were expressed as percentage of relative cell viability as follows: % cell viability=[(Abs490−Absblank)□/(Abscontrol−Absblank)]×100% (Eq. 1)
A killing curve was constructed for NO-releasing and control PAMAM scaffolds by plotting % cell viability versus concentration (mg mL^−).

## Hyperbranched polyamidoamine [h-PAMAM]
  toxicity to HGF-1 (in words): most toxic
